Assay results published in patent US10047050B2, “3,4-di-substituted pyridine compound, methods of using and compositions comprising the same” (ARDEA BIOSCIENCES, INC., priority 2011, dated 2018).
Values joined by “and” are separate entries in the source; they are usually repeats but may differ in a detail not shown here. Equal entries are not always repeated.

Tested on: serum uric acid
Experiment: Single-dose Phase I clinical trial, serum uric acid (sUA) 0-72 hours post-dose
Assay type: in vivo, human
Settings: for % sUA change (from baseline) / % sUA reduction (from baseline): individual subjects 3-8; for % sUA change (from baseline), Mean (3-8) / Absolute sUA concentration, Mean (3-8) / % sUA reduction (from baseline), Mean (3-8): mean of subjects 3-8
Description: A Phase 1, Randomized, Double-Blind, Placebo-Controlled Study to Evaluate Safety, Tolerability, Pharmacokinetics and Preliminary Food Effect of Single Doses of a URAT1 Inhibitor, in Healthy Adult Male Volunteers.
To assess safety, tolerability, pharmacokinetics and uricosuric effects after oral administration as single doses of a tablet formulation and the effect of food on bioavailability.
Subjects receive a single, oral dose of active or placebo, at the following doses:
Group 4: 20 mg (fasted) [sentinel dosing];
48 subjects in 6 dose groups, 8 subjects/group, are randomized 3:1 to receive active (6/group) or placebo (2/group). All study procedures are the same regardless of whether subject receives active or placebo. The total duration of subject participation, including screening period, is ˜2-4 weeks, and the total volume of blood collected from each subject during the entire study <500 mL, (less than typically collected during a volunteer blood donation).
5 mg and 20 mg, active and placebo, tablets packaged in 35 count HDPE bottles, stored at controlled room temperature (15-30° C.). Placebo tablets are designed to match the active tablets—identical size, form, taste, and color, and containing the same excipients. 2 mg was dosed as an oral solution.
Subjects dosed on the morning of Day 1 with ˜240 mL of room temp water.
Fasted: subjects are dosed after overnight fast >10 hours and remain fasted until >4 hours post-dose.
Fed: subjects fast overnight for >10 hours, then are dosed 30 mins after completing standard moderate fat breakfast (no high fructose corn syrup).
Serum samples are collected at:
PD samples are frozen (−20° C.) and stored; all samples from a given subject assayed in a single analytical run.

[1] = Group 1, 2 mg single oral dose, fasted, 0 h (baseline)
[2] = Group 1, 2 mg single oral dose, fasted, 6 h post-dose
[3] = Group 1, 2 mg single oral dose, fasted, 12 h post-dose
[4] = Group 1, 2 mg single oral dose, fasted, 24 h post-dose
[5] = Group 1, 2 mg single oral dose, fasted, 30 h post-dose
[6] = Group 1, 2 mg single oral dose, fasted, 36 h post-dose
[7] = Group 1, 2 mg single oral dose, fasted, 48 h post-dose
[8] = Group 1, 2 mg single oral dose, fasted, 54 h post-dose
[9] = Group 1, 2 mg single oral dose, fasted, 60 h post-dose
[10] = Group 1, 2 mg single oral dose, fasted, 72 h post-dose
[11] = Group 2, 5 mg single oral dose, fasted, 0 h (baseline)
[12] = Group 2, 5 mg single oral dose, fasted, 6 h post-dose
[13] = Group 2, 5 mg single oral dose, fasted, 12 h post-dose
[14] = Group 2, 5 mg single oral dose, fasted, 24 h post-dose
[15] = Group 2, 5 mg single oral dose, fasted, 30 h post-dose
[16] = Group 2, 5 mg single oral dose, fasted, 36 h post-dose
[17] = Group 2, 5 mg single oral dose, fasted, 48 h post-dose
[18] = Group 2, 5 mg single oral dose, fasted, 54 h post-dose
[19] = Group 2, 5 mg single oral dose, fasted, 60 h post-dose
[20] = Group 2, 5 mg single oral dose, fasted, 72 h post-dose
[21] = Group 3, 5 mg single oral dose, fed, 0 h (baseline)
[22] = Group 3, 5 mg single oral dose, fed, 6 h post-dose
[23] = Group 3, 5 mg single oral dose, fed, 12 h post-dose
[24] = Group 3, 5 mg single oral dose, fed, 24 h post-dose
[25] = Group 3, 5 mg single oral dose, fed, 30 h post-dose
[26] = Group 3, 5 mg single oral dose, fed, 36 h post-dose
[27] = Group 3, 5 mg single oral dose, fed, 48 h post-dose

SMILES: CC(C)(Sc1ccncc1-c1ccc(C#N)c2ccccc12)C(=O)O [2-((3-(4-cyanonaphthalen-1-yl)pyridin-4-yl)thio)-2-methylpropanoic acid]
- % sUA change (from baseline) [1]: 0%
- % sUA change (from baseline), Mean (3-8) [1]: 0%
- Absolute sUA concentration, Mean (3-8) [1]: 6.5 mg/dL
- % sUA change (from baseline) [2]: −30.4% and −47.5% and −35.5% and −37.8% and −38.2% and −33.3%
- % sUA change (from baseline), Mean (3-8) [2]: −10.2%
- Absolute sUA concentration, Mean (3-8) [2]: 5.8 mg/dL
- % sUA change (from baseline) [3]: −44.6% (2×) and −52.5% and −48.4% and −43.4% and −42.3%
- % sUA change (from baseline), Mean (3-8) [3]: −15.6%
- Absolute sUA concentration, Mean (3-8) [3]: 5.5 mg/dL
- % sUA change (from baseline) [4]: −41.1% and −44.1% and −43.5% and −40.5% and −43.4% and −46.2%
- % sUA change (from baseline), Mean (3-8) [4]: −8.1%
- Absolute sUA concentration, Mean (3-8) [4]: 6.0 mg/dL
- % sUA change (from baseline) [5]: −46.4% and −52.5% and −43.5% and −44.6% and −44.7% and −52.6%
- % sUA change (from baseline), Mean (3-8) [5]: −13.5%
- Absolute sUA concentration, Mean (3-8) [5]: 5.6 mg/dL
- % sUA change (from baseline) [6]: −48.2% and −52.5% and −45.2% and −45.9% and −46.1% and −52.6%
- % sUA change (from baseline), Mean (3-8) [6]: −18.8%
- Absolute sUA concentration, Mean (3-8) [6]: 5.3 mg/dL
- % sUA change (from baseline) [7]: −32.1% and −42.4% and −38.7% and −36.5% and −35.5% and −48.7%
- % sUA change (from baseline), Mean (3-8) [7]: −13.3%
- Absolute sUA concentration, Mean (3-8) [7]: 5.6 mg/dL
- % sUA change (from baseline) [8]: −33.9% and −45.8% and −37.1% and −27% and −32.9% and −48.7%
- % sUA change (from baseline), Mean (3-8) [8]: −19.3%
- Absolute sUA concentration, Mean (3-8) [8]: 5.3 mg/dL
- % sUA change (from baseline) [9]: −35.7% and −45.8% and −35.5% and −29.7% and −32.9% and −46.2%
- % sUA change (from baseline), Mean (3-8) [9]: −21.3%
- Absolute sUA concentration, Mean (3-8) [9]: 5.1 mg/dL
- % sUA change (from baseline) [10]: −23.2% and −30.5% and −16.1% and −14.9% and −15.8% and −28.2%
- % sUA change (from baseline), Mean (3-8) [10]: −15.5%
- Absolute sUA concentration, Mean (3-8) [10]: 5.5 mg/dL
- % sUA reduction (from baseline) [11]: 0%
- % sUA reduction (from baseline), Mean (3-8) [11]: 0%
- Absolute sUA concentration, Mean (3-8) [11]: 6.5 mg/dL
- % sUA reduction (from baseline) [12]: −24.3% and −13.9% and −14.3% and −13.1% and −27.9% and −22.0%
- % sUA reduction (from baseline), Mean (3-8) [12]: −19.3%
- Absolute sUA concentration, Mean (3-8) [12]: 5.3 mg/dL
- % sUA reduction (from baseline) [13]: −36.5% and −16.7% and −19.0% and −13.1% and −37.7% and −32.2%
- % sUA reduction (from baseline), Mean (3-8) [13]: −25.9%
- Absolute sUA concentration, Mean (3-8) [13]: 4.8 mg/dL
- % sUA reduction (from baseline) [14]: −25.7% and −11.1% (2×) and 0.0% and −26.2% and −16.9%
- % sUA reduction (from baseline), Mean (3-8) [14]: −15.2%
- Absolute sUA concentration, Mean (3-8) [14]: 5.5 mg/dL
- % sUA reduction (from baseline) [15]: −29.7% and −16.7% and −17.5% and −8.2% and −36.1% and −28.8%
- % sUA reduction (from baseline), Mean (3-8) [15]: −22.8%
- Absolute sUA concentration, Mean (3-8) [15]: 5.0 mg/dL
- % sUA reduction (from baseline) [16]: −32.4% and −23.6% and −14.3% and −14.8% and −41.0% and −32.2%
- % sUA reduction (from baseline), Mean (3-8) [16]: −26.4%
- Absolute sUA concentration, Mean (3-8) [16]: 4.8 mg/dL
- % sUA reduction (from baseline) [17]: −27.0% and −11.1% and −9.5% and −11.5% and −31.1% and −20.3%
- % sUA reduction (from baseline), Mean (3-8) [17]: −18.4%
- Absolute sUA concentration, Mean (3-8) [17]: 5.3 mg/dL
- % sUA reduction (from baseline) [18]: −31.1% and −18.1% and −15.9% and −16.4% and −32.8% and −28.8%
- % sUA reduction (from baseline), Mean (3-8) [18]: −23.9%
- Absolute sUA concentration, Mean (3-8) [18]: 5.0 mg/dL
- % sUA reduction (from baseline) [19]: −28.4% and −22.2% and −20.6% and −21.3% and −32.8% and −28.8%
- % sUA reduction (from baseline), Mean (3-8) [19]: −25.7%
- Absolute sUA concentration, Mean (3-8) [19]: 4.8 mg/dL
- % sUA reduction (from baseline) [20]: −21.6% and −15.3% and −12.7% and −13.1% and −26.2% and −23.7%
- % sUA reduction (from baseline), Mean (3-8) [20]: −18.8%
- Absolute sUA concentration, Mean (3-8) [20]: 5.3 mg/dL
- % sUA reduction (from baseline) [21]: 0%
- % sUA reduction (from baseline), Mean (3-8) [21]: 0%
- Absolute sUA concentration, Mean (3-8) [21]: 6.0 mg/dL
- % sUA reduction (from baseline) [22]: −36.2% and −31.8% and −25.0% and −22.8% and −30.0%
- % sUA reduction (from baseline), Mean (3-8) [22]: −29.2%
- Absolute sUA concentration, Mean (3-8) [22]: 4.1 mg/dL
- % sUA reduction (from baseline) [23]: −40.6% and −37.9% and −29.2% and −25.0% and −22.8%
- % sUA reduction (from baseline), Mean (3-8) [23]: −32.2%
- Absolute sUA concentration, Mean (3-8) [23]: 4.0 mg/dL
- % sUA reduction (from baseline), Mean (3-8) [24]: −17.2%
- Absolute sUA concentration, Mean (3-8) [24]: 4.9 mg/dL
- % sUA reduction (from baseline), Mean (3-8) [25]: −25.6%
- Absolute sUA concentration, Mean (3-8) [25]: 4.4 mg/dL
- % sUA reduction (from baseline), Mean (3-8) [26]: −29.1%
- Absolute sUA concentration, Mean (3-8) [26]: 4.2 mg/dL
- % sUA reduction (from baseline) [27]: −31.9% and −30.3% and −23.1% and −23.3% and −14.0% and −27.5%
- % sUA reduction (from baseline), Mean (3-8) [27]: −25.0%
